Holding throughout (assay): growth of human tumour cells (NCI), 48 h
Test [1] relates to HCT-116 colon.
Test [2] concerns HL-60(TB) leukemia.
Test [3] concerns LOX IMVI melanoma.
Test [4] has as its system NCI-H23 lung.
The subject of test [5] is NCI-H522 lung.
Test [6] relates to OVCAR-3 ovarian.
Test [7] has as its system SNB-19 CNS.
Test [8] relates to UACC-62 melanoma.
Test [9] has as its system MDA-MB-231 breast.
Test [10] relates to HS 578T breast.

The structures appear in SMILES notation.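 Five concentrations, 48 hours, 96-well plates. The concentration for full growth arrest is given as TGI.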

For `O=C(O)C(CS)N=c1c2ccccc2n(O)c2ccccc12` (centres undefined), the TGI in [1], in test [2], in test [3], in test [4], in test [5] and in [6] was above 100 µM in each case. Also, the TGI in [7] and in test [8] was above 100 µM each time.
With `COC1(OC)CCCCC2c3cccc(OC(C)=O)c3C21OC(C)=O` (centres undefined), the TGI in test [1], in test [2], in test [3], in test [4], in test [5] and in test [6] was above 100 µM throughout. Moreover, the TGI in test [7] and in test [8] was above 100 µM in each case.
Turning to `COC(=O)C1CC2(c3ccccc3)C(=O)c3ccccc3N2O1` (centres undefined), the TGI in [1] is above 100 µM; in test [2], 82.1 µM; in [3], 81.7 µM; in [4], above 100 µM; in test [5] it was 28.8 µM; in test [6], above 100 µM. For the same compound, the TGI in test [7] and in test [8] was above 100 µM throughout.
Turning to `COC(=O)/C=C/c1cc(OC)c(OC)c(OC)c1`, the TGI in [1], in [2], in test [3], in test [4], in [5] and in [6] was above 100 µM in each case. The TGI in [7] and in [8] was above 100 µM in each case.
As to `CCC(C(=O)c1ccc(OC)c(OC)c1)N(C(=O)C(F)(F)F)C(C)c1ccccc1` (centres undefined), the TGI in test [1], in test [2], in test [3], in test [9], in test [5] and in test [6] was above 100 µM in each case. In addition, the TGI in test [7] and in test [8] was above 100 µM each time.
With `CCC(=O)Oc1c2ccsc2c(OC(=O)CC)c2ccsc12`, the TGI worked out at 1.79 µM in [1]; 1.2 µM in [10]; 1.27 µM in test [9]; 0.364 µM in test [4]; 2.06 µM in test [5]; 1.58 µM in test [7]. Besides, in [8], the TGI is 0.439 µM.
As for `Nc1ccc2[nH]c(-c3cccc(Cl)c3)cc(=O)c2c1`, the TGI in [10] is above 100 µM; in test [9] it was above 100 µM; in [4], above 100 µM; in test [5] it was 6.87 µM; in [7] it was above 100 µM; in [8] it was above 100 µM.
Consider `C=CCOCCCCC(C(C)=O)C(=O)OC` (centres undefined), for which the TGI in test [1], in test [2], in test [3], in [4], in [5] and in test [6] was above 100 µM throughout. In addition, the TGI in [7] and in test [8] was above 100 µM throughout.
As for `CC(=O)OC/C=C(/C=C/CNC1CCCCC1)OC(C)=O`, the TGI in test [1] is 30.5 µM; in [10] it was 80.7 µM; in [3], 37.5 µM; in test [9] it was 27.9 µM; in test [4], 29.9 µM; in test [5], 42.1 µM. In addition, the TGI worked out at 37.7 µM in test [6], 49.9 µM in test [7] and 33.2 µM in test [8].
Consider `O=C(CC1=NCCN1)c1ccccc1`, for which the TGI in [1], in test [2], in [3], in [4], in test [5] and in [6] was above 750 µM throughout. Also, the TGI in [7] and in test [8] was above 750 µM throughout.
On to `O=c1[nH]nc(-c2ccccc2)c2[nH]c(-c3ccccc3)cc12`, for which the TGI in test [1], in [2], in [10], in [3], in test [4] and in test [6] was above 100 µM each time. The TGI in [7] was above 100 µM.
For the compound `NC1CNC(=O)c2c(Cl)sc(Cl)c21` (centres undefined), the TGI in [1], in test [10], in test [3], in test [9], in test [4] and in test [6] was above 100 µM each time. The TGI in test [7] and in [8] was above 100 µM throughout.
For the compound `O=C(N/N=C/c1cc(Br)cc(Br)c1[O-])c1ccccc1O.O=C(N/N=C/c1cc(Br)cc(Br)c1[O-])c1ccccc1O.[Fe+2]`, the TGI worked out at 10.6 µM in test [1]; 11.2 µM in [2]; 22.7 µM in test [3]; 9.66 µM in test [4]; 11.4 µM in test [5]; 25.8 µM in test [6]. Also, the TGI was 20.4 µM in test [7] and 10.5 µM in [8].
On to `CC(=O)OCC(OC(C)=O)C1C[C@H]2O[C@@H]3[C@H](C[C@H]2O1)O[C@@]1(C[C@@H]3C)C[C@H](C)[C@@H]2O[C@]3(C[C@@H]2O1)C[C@H]1O[C@H]2[C@H](C)[C@H]4OC(=O)CC5CC[C@H]6OC7[C@H]8O[C@]9(CC[C@H]%10CC(O)(CO)[C@H](CC[C@H]%11C[C@@H](C)C(O)(CO)C(C[C@@H]4O[C@H]2C[C@H]1O3)O%11)O%10)CC8O[C@@H]7[C@@H](O9)[C@H]6O5` (some centres undefined), for which the TGI in test [1] is above 0.452 µM; in test [10] it was 0.00517 µM; in [3] it was above 0.414 µM; in [9], above 1 µM; in test [5] it was 0.00451 µM; in test [6], above 1 µM. Further, the TGI in test [7] and in test [8] was above 1 µM each time.
Consider `CC1(C)OCC2OC3([C@H]4OC(C)(C)O[C@@H]4CO)OC(C)(C)OC3C2O1` (some centres undefined), for which the TGI in test [1], in test [3], in test [9], in [4], in [6] and in test [7] was above 100 µM in each case. In test [8], this compound returned a TGI above 100 µM.
In the case of `O=C(O)C(CO)NC(=O)n1c2ccccc2c2ccccc21` (centres undefined), the TGI in test [1], in [2], in test [3], in test [4], in [5] and in test [6] was above 100 µM throughout. Also, the TGI in test [7] and in [8] was above 100 µM in each case.
For the compound `Clc1ccc(OCc2nnc(CCCCCCCCc3nnc(COc4ccc(Cl)cc4)n3Nc3ccccc3)n2Nc2ccccc2)cc1`, the TGI in [1] is 24.2 µM; in [10], above 100 µM; in [3], 42.6 µM; in test [9], above 100 µM; in [4], above 100 µM; in test [5] it was 34.5 µM. Also, the results for the TGI in [6], in test [7] and in test [8] were 39.9 µM, above 100 µM and 38.8 µM, respectively.
For `Cc1cn(C(C)OCCN2C(=O)c3ccccc3C2=O)c(=O)[nH]c1=O` (centres undefined), the TGI in test [1], in test [3], in test [9], in test [4], in test [6] and in [7] was above 100 µM in each case. This compound showed a TGI in [8] above 100 µM.
Regarding `O=C(N/N=C/c1ccco1)c1cc(I)cc(I)c1O`, the TGI in test [1] was above 50 µM; in test [2], 27.7 µM; in [10], above 50 µM; in [3], above 50 µM; in [4], above 50 µM; in [5], above 50 µM. Also, the TGI in test [7] and in test [8] was above 50 µM in each case.
With `C=C1CC(C)(c2ccc(Nc3nc4ccccc4c4occc34)cc2)OC1=O` (centres undefined), the TGI in test [2] came to 6.34 µM; in [9], 6.35 µM; in test [4], 4.55 µM; in [6] it was 12.9 µM; in test [7] it was 34.6 µM.
As for `O=C1C(Cl)N(c2ccccc2[N+](=O)[O-])C1c1c[nH]c2ccccc12` (centres undefined), the TGI in test [1], in test [2], in test [4], in test [5], in [6] and in [7] was above 100 µM each time. In addition, the TGI in [8] was above 100 µM.
As to `CNC(=O)N(CCC#N)[C@H]1CCCC[C@@H]1N(C(=O)NC)c1ccccc1`, the TGI in test [1], in [3], in test [9], in [4], in test [5] and in test [6] was above 100 µM throughout. Also, the TGI in [7] and in [8] was above 100 µM each time.
As to `O=C1C=CC(=O)c2c(O)c(NCCc3ccc(O)cc3)c(Cl)c(O)c21`, the TGI in test [1], in test [2], in test [3], in [9], in [4] and in test [5] was above 10 µM throughout. Also, the TGI in [6], in test [7] and in test [8] was above 10 µM each time.
For `CCNC(=O)C1CCCN1C(=O)C(CCCN=C(N)N)NC(=O)C(CC(C)C)NC(=O)C(Cc1c[nH]c2ccccc12)NC(=O)C(Cc1ccc(O)cc1)NC(=O)C(CO)NC(=O)C(Cc1c[nH]c2ccccc12)NC(=O)C(Cc1cnc[nH]1)NC(=O)C1CCC(=O)N1` (centres undefined), the TGI in [10], in test [9], in test [4], in test [5], in test [6] and in [7] was above 100 µM in each case. The compound further came in with a TGI in [8] above 100 µM.
Consider `O=C1NC2OC(CO)C(O)C(O1)C2O` (centres undefined), for which the TGI in [2], in test [3], in [4], in test [5], in test [6] and in test [7] was above 100 µM throughout. The compound further showed a TGI in test [8] above 100 µM.
As for `CN(C)CCn1c(=O)c2ccc(NCCCN(C)CCCNc3ccc4c(=O)n(CCN(C)C)c(=O)n5c6ccc([N+](=O)[O-])cc6c(=O)c3c45)c3c(=O)c4cc([N+](=O)[O-])ccc4n(c1=O)c23`, the TGI in test [1] was 0.118 µM; in test [2], 1.56 µM; in [9], 0.125 µM; in test [4], 0.171 µM; in test [5], 0.134 µM; in test [6], 1.31 µM. Besides, the TGI was determined as 0.193 µM in test [7] and 0.318 µM in [8].
Take `CCOn1c(C2(CC3CCN(C(=O)c4ccccc4)CC3)OCCO2)cc2ccccc21`: the TGI turned out to be 29.2 µM in test [1]; 30.4 µM in [3]; 30 µM in [9]; 40.6 µM in test [4]; 35 µM in test [5]; 30 µM in test [6]. The TGI turned out to be 30.9 µM in [7] and 23.4 µM in test [8].
As to `COc1ccc2c(c1)CC1=C(O2)c2ccc(OC)cc2OC1`, the TGI is 41.8 µM in test [1]; above 100 µM in test [2]; 27.2 µM in test [3]; 89.6 µM in [9]; above 100 µM in test [4]; 35.4 µM in test [5]. For the same compound, the figures for the TGI in [6] and in test [8] were 36.4 µM and 39.2 µM, respectively.
For `Cc1cn([C@@H]2C[C@H]2CO)c(=O)[nH]c1=O`, the TGI in test [1], in [2], in test [3], in test [9], in [4] and in test [5] was above 100 µM each time. The TGI in [7] and in test [8] was above 100 µM throughout.
As to `COc1c(Br)cc(CC(N)=O)c(O)c1Br`, the TGI in [1], in [2], in test [3], in [4], in [5] and in [6] was above 100 µM in each case. For the same compound, the TGI in test [7] and in test [8] was above 100 µM throughout.
Turning to `NC(N)=Nc1ncccc1[N+](=O)[O-]`, the TGI was above 100 µM in [1]; 44.4 µM in [2]; above 100 µM in test [3]; above 100 µM in [4]; above 100 µM in test [5]; 66.5 µM in [6]. In addition, the TGI in test [7] and in test [8] was above 100 µM in each case.

These data come from PubChem BioAssay (NCI).
